Data: patent publication US10221139B2, “Inhibitors of histone demethylases” (Gilead Sciences, Inc., priority 2012, dated 2019)

Each compound was assayed on demethylation of H3K4 (H3K4me3 mark) in U2OS cells (assay: Histone lysine demethylase immunofluorescence assay, non-transfected U2OS cells (H3K4me3 staining)). Settings: Homo sapiens, 20 hours.
Assay type: cell-based
Method: Histone Lysine Demethylase Immunofluorescence Assays for IC50 Value Determination, Non-Transfected Cells
U2OS cells were harvested and seeded into multi well plates into media containing compound. The media used was DMEM containing 5% FBS and pen/strep. 20 hours after incubation of cells with compounds, the cells were washed once in PBS, harvested by fixation with formaldehyde 4% aqueous solution, and washed 2 times in PBS. Subsequently, the cells were permeabilized in PBS with 0.2% Triton X-100 for 10 min at room temperature. Blocking was performed in PBS with 0.2% Triton X-100 and 5% FBS for 45 min at room temperature. The cells were incubated with αH3K4me3 primary antibody (Cell Signaling, #9751S) diluted 1:1000 in blocking solution over night at 4° C. After incubation with primary antibody, the cells were washed 3 times with PBS, incubated with secondary antibody diluted 1:1000 (Alexa fluor 594 goat anti rabbit IgG, Invitrogen, A11012) and Hoechst, 20 μg/ml (Sigma, 33342) in blocking solution, and washed again 3 times with PBS. Finally, PBS was added and high throughput imaging and analysis were performed by an IN Cell Analyzer 1000 (GE Healthcare). The IC50 values seen in Table 4 were based on an average measure of the staining of the H3K4me3 mark in cells.

Row | Structure (SMILES) | IC50 [nM]
1 | CCN(CCN(C)C)C(=O)CNCc1cc(C(=O)OC(C)CC(C)=O)ccn1 (centres unmarked) [drawing 238, 4-oxopentan-2-yl 2-{[({[2-(dimethylamino)ethyl](ethyl)carbamoyl}methyl)amino]methyl}pyridine-4-carboxylate] | < 1000
2 | CCN(CCN(C)C)C(=O)CNCc1cc(C(=O)OC(C)CCNC(=O)C(F)(F)F)ccn1 (centres unmarked) [drawing 239, 4-(trifluoroacetamido)butan-2-yl 2-{[({[2-(dimethylamino)ethyl](ethyl)carbamoyl}methyl)amino]methyl}pyridin-4-carboxylate] | < 1000
3 | CCN(CCN(C)C)C(=O)CNCc1cc(C(=O)OC(C)CCN(C)C(=O)C(F)(F)F)ccn1 (centres unmarked) [drawing 240, 4-(2,2,2-trifluoro-N-methylacetamido)butan-2-yl 2-{[({[2-(dimethylamino)ethyl](ethyl)carbamoyl}methyl)amino]methyl}pyridine-4-carboxylate] | < 1000
4 | CCOC(=O)c1ccnc(CNCC(=O)N(CC)CCN(C)C)c1 [drawing 241, ethyl 2-{[({[2-(dimethylamino)ethyl](ethyl)carbamoyl}methyl)amino]methyl}pyridine-4-carboxylate] | < 1000
5 | C=CC(CCNC(=O)C(F)(F)F)OC(=O)c1ccnc(CNCC(=O)N(CC)CCN(C)C)c1 (centres unmarked) [drawing 242, 5-(trifluoroacetamido)pent-1-en-3-yl 2-{[({[2-(dimethylamino)ethyl](ethyl)carbamoyl}methyl)amino]methyl}pyridine-4-carboxylate] | < 1000
6 | C=CC(CCN(C)C(=O)C(F)(F)F)OC(=O)c1ccnc(CNCC(=O)N(CC)CCN(C)C)c1 (centres unmarked) [drawing 243, 5-(2,2,2-trifluoro-N-methylacetamido)pent-1-en-3-yl 2-{[({[2-(dimethylamino)ethyl](ethyl)carbamoyl}methyl)amino]methyl}pyridine-4-carboxylate] | < 1000
7 | CCCCCCCCCCCCCCCC(=O)OCC(COC(=O)CCCCCCCCCCCCCCC)OC(=O)c1ccnc(CNCC(=O)N(CC)CCN(C)C)c1 [drawing 244, 2-(2-{[({[2-(dimethylamino)ethyl](ethyl)carbamoyl}methyl)amino]methyl}pyridine-4-carbonyloxy)-3-(hexadecanoyloxy)propyl hexadecanoate] | < 1000
8 | CCCCCCCCCCCCCCCC(=O)OCC(COC(=O)c1ccnc(CNCC(=O)N(CC)CCN(C)C)c1)OC(=O)CCCCCCCCCCCCCCC (centres unmarked) [drawing 245, 1-(2-{[({[2-(dimethylamino)ethyl](ethyl)carbamoyl}methyl)amino]methyl}pyridine-4-carbonyloxy)-3-(hexadecanoyloxy)propan-2-yl hexadecanoate] | < 1000
9 | CCN(CCN(C)C)C(=O)CNCc1cc(C(=O)OC)ccn1 [drawing 246, methyl 2-{[({[2-(dimethylamino)ethyl](ethyl)carbamoyl}methyl)amino]methyl}pyridine-4-carboxylate] | < 1000
10 | CCN(CCN(C)C)C(=O)CNCc1cc(C(=O)N(C)S(C)(=O)=O)ccn1 [drawing 247, 2-{[({[2-(dimethylamino)ethyl](ethyl)carbamoyl}methyl)amino]methyl}-N-methanesulfonyl-N-methylpyridine-4-carboxamide] | 1000 to 50000
11 | CCN(CCN(C)C)C(=O)CNCc1cc(C(=O)N2CCOC2=O)ccn1 [drawing 248, N-[2-(dimethylamino)ethyl]-N-ethyl-2-({[4-(2-oxo-1,3-oxazolidine-3-carbonyl)pyridin-2-yl]methyl}amino)acetamide] | 1000 to 50000
12 | CCN(CCN(C)C)C(=O)CNCc1cc(C(=O)OC(CCNC(=O)C(F)(F)F)CC(=O)OC(C)C)ccn1 (centres unmarked) [drawing 250, propan-2-yl 3-(2-{[({[2-(dimethylamino)ethyl](ethyl)carbamoyl}methyl)amino]methyl}pyridine-4-carbonyloxy)-5-(trifluoroacetamido)pentanoate] | < 1000
13 | CCN(CCN(C)C)C(=O)CNCc1cc(C(=O)OCC(F)(F)F)ccn1 [drawing 251, 2,2,2-trifluoroethyl 2-{[({[2-(dimethylamino)ethyl](ethyl)carbamoyl}methyl)amino]methyl}pyridine-4-carboxylate] | < 1000
14 | CCN(CCN(C)C)C(=O)CNCc1cc(C(=O)Nc2ncco2)ccn1 [drawing 252, 2-{[({[2-(dimethylamino)ethyl](ethyl)carbamoyl}methyl)amino]methyl}-N-(1,3-oxazol-2-yl)pyridine-4-carboxamide] | 1000 to 50000
15 | CCN(CCN(C)C)C(=O)CNCc1cc(C(=O)Oc2c(OC(C)C)cccc2OC(C)C)ccn1 [drawing 253, 2,6-bis(propan-2-yloxy)phenyl 2-{[({[2-(dimethylamino)ethyl](ethyl)carbamoyl}methyl)amino]methyl}pyridine-4-carboxylate] | 1000 to 50000
16 | CCN(CCN(C)C)C(=O)CNCc1cc(C(=O)Nc2nccn2C)ccn1 [drawing 254, 2-{[({[2-(dimethylamino)ethyl](ethyl)carbamoyl}methyl)amino]methyl}-N-(1-methyl-1H-imidazol-2-yl)pyridine-4-carboxamide] | 1000 to 50000
17 | CCN(CCN(C)C)C(=O)CNCc1cc(C(=O)OCCF)ccn1 [drawing 255, 2-fluoroethyl 2-{[({[2-(dimethylamino)ethyl](ethyl)carbamoyl}methyl)amino]methyl}pyridine-4-carboxylate] | < 1000
18 | CCN(CCN(C)C)C(=O)CNCc1cc(C(=O)OCC(F)F)ccn1 [drawing 256, 2,2-difluoroethyl 2-{[({[2-(dimethylamino)ethyl](ethyl)carbamoyl}methyl)amino]methyl}pyridine-4-carboxylate] | < 1000

Each compound was assayed against T1, GASC1 (KDM4C) (Homo sapiens, UniProt Q9H3R0) (assay: Immunofluorescence assay in U2OS cells transfected with pCMVHA JMJD2C (H3K9me3 mark)). Settings: 20 hours.
T1 construct: Full length; host or cells: U2OS
T1 sequence (Q9H3R0 1-1056): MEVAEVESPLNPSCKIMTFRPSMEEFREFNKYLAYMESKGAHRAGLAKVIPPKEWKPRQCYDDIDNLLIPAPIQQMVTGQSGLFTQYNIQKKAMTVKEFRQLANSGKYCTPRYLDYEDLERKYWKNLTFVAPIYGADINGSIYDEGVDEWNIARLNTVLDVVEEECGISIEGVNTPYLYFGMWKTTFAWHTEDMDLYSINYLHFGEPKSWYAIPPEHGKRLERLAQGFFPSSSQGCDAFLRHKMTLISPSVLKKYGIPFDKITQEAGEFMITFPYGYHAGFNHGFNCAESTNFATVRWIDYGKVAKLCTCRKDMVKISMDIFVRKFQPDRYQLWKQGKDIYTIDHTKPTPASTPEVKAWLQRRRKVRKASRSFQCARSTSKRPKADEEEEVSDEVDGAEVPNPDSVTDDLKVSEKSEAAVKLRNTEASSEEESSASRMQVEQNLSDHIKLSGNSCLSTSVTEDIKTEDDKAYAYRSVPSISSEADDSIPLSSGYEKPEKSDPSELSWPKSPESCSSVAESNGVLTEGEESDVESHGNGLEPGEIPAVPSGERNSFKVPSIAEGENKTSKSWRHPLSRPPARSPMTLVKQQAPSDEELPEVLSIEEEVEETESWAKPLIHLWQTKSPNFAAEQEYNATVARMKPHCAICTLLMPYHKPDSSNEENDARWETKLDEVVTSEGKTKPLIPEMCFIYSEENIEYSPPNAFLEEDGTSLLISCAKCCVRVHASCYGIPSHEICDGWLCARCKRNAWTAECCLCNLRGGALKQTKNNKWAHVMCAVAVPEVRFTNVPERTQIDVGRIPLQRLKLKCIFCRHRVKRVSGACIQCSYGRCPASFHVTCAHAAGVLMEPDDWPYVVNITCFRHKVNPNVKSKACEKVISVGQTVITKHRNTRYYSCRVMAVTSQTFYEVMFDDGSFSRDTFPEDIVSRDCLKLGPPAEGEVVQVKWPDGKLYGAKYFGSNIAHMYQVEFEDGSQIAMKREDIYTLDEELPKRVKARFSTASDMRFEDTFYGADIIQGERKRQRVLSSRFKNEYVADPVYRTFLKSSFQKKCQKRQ
Assay type: cell-based
Method: U2OS cells were seeded 24 hours before transfection. Transfection was performed with Fugene HD transfection reagent as recommended by the manufacturer. 6 hours after transfection, the cells were harvested and seeded into multi well plates into media containing compound. The media used was DMEM containing 5% FBS and pen/strep. 20 hours after incubation of cells with compounds, the cells were washed once in PBS, harvested by fixation with formaldehyde 4% aqueous solution, and washed 2 times in PBS. Subsequently, the cells were permeabilized in PBS with 0.2% Triton X-100 for 10 min at room temperature. Blocking was performed in PBS with 0.2% Triton X-100 and 5% FBS for 45 min at room temperature. The cells were incubated with primary antibodies diluted 1 μg/ml in blocking solution over night at 4° C. The primary antibodies used in the assays were HA.11 (Covance, MMS-101P) and the antibody detecting the mark specified in the Table 6 below. After incubation with primary antibodies, the cells were washed 3 times with PBS, incubated with secondary antibodies diluted 1:1000 (Alexa fluor 594 goat anti rabbit IgG, Invitrogen, A11012; Alexa flour 488 donkey anti mouse IgG, Invitrogen, A21202) and Hoechst, 20 μg/ml (Sigma, 33342) in blocking solution, and washed again 3 times with PBS. Finally, PBS was added and high throughput imaging and analysis were performed by an IN Cell Analyzer 1000 (GE Healthcare). The robot software analyzed individual cells and divided these into HA^+ (transfected cells) and HA^− (non-transfected cells). The IC50 values in Table 7 below were based on an average measure of the staining of the mark specified in the Table 6 below in the transfected cells.

Row | Structure (SMILES) | IC50 [nM]
19 | O=C(O)c1ccnc(CNCc2ccco2)c1 [drawing 303, 2-{[(furan-2-ylmethyl)amino]methyl}pyridine-4-carboxylic acid] | 1000 to 50000
20 | CN(CCC(N)=O)C(=O)CNCc1cc(C(=O)O)ccn1 [drawing 311, 2-[({[(2-carbamoylethyl)(methyl)carbamoyl]methyl}amino)methyl]pyridine-4-carboxylic acid] | > 50000
